Drawing on US20230146675A1, “PYRIMIDO[5,4-d]PYRIMIDINE DERIVATIVES AS ENT INHIBITORS FOR THE TREATMENT OF CANCERS, AND COMBINATION THEREOF WITH ADENOSINE RECEPTOR ANTAGONISTS” (ITEOS BELGIUM SA, priority 2020, published 2023), this text covers IC50 for 24 compounds.

The target of this experiment is T1, human ENT1 (Homo sapiens, UniProt Q99808).
T1 sequence (Q99808 1-456): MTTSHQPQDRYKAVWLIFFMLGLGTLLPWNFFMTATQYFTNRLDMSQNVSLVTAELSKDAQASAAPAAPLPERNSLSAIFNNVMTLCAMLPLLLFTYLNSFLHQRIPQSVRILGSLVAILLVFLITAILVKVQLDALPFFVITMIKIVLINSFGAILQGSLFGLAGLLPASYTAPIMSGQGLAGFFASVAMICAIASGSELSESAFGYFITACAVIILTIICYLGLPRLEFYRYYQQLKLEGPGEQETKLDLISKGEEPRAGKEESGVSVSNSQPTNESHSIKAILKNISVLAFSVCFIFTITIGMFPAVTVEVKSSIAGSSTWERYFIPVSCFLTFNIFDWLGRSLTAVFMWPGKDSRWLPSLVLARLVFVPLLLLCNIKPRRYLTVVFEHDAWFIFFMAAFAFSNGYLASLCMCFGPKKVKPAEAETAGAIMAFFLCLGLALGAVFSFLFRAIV
The experiment in a line: ENT1 binding assay (competition with Sahenta-DY647 on JAR cells). Also noted: JAR cells expressing ENT1 were bought from ATCC; host or cells: JAR cells. Conditions: binned IC50. The method in brief: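 JAR cells were incubated with test compounds and the fluorescent ligand Sahenta-DY647 in competition. Plates were washed twice by centrifugation (4 min, 400 rcf, 4 °C). Binding potency was derived from the final fluorescence.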
In turn, `COCCN(CCOC)c1nc(N2CCn3ncnc3C2)c2nc(N(CCOC)CCOC)nc(N3CCS(=O)(=O)CC3)c2n1` [Compound 6, 4-(2,6-bis(bis(2-methoxyethyl)amino)-8-(5,6-dihydro-[1,2,4]triazolo[1,5-a]pyrazin-7(8H)-yl)pyrimido[5,4-d]pyrimidin-4-yl)thiomorpholine 1,1-dioxide] yielded an IC50 of 100 to 500 nM.
As for `COCCN(CCOC)c1nc(N2CCN(C)C(=O)C2)c2nc(N3CCN(c4ncccc4N)CC3)nc(N3CCC(OC)CC3)c2n1` [Compound 294, 4-(6-(4-(3-aminopyridin-2-yl)piperazin-1-yl)-2-(bis(2-methoxyethyl)amino)-8-(4-methoxypiperidin-1-yl)pyrimido[5,4-d]pyrimidin-4-yl)-1-methylpiperazin-2-one], the figure is less than 100 nM.
`COCCN(CCOC)c1nc(N2CCC(OC)CC2)c2nc(N(CCOC)CCOC)nc(OCc3cncc(C#N)c3)c2n1` [Compound 158, 5-(((2,6-bis(bis(2-methoxyethyl)amino)-8-(4-methoxypiperidin-1-yl)pyrimido[5,4-d]pyrimidin-4-yl)oxy)methyl)nicotinonitrile]: the IC50 lay within 100 to 500 nM.
Consider `COCCN(CCOC)c1nc(N2CCC(OC)CC2)c2nc(N(CCOC)CCOC)nc(NCc3nccs3)c2n1` [Compound 58, N2,N2,N6,N6-tetrakis(2-methoxyethyl)-8-(4-methoxypiperidin-1-yl)-N4-(thiazol-2-ylmethyl)pyrimido[5,4-d]pyrimidine-2,4,6-triamine], for which the IC50 was in the range of 500 to 1000 nM.
The compound `COCCN(CCOC)c1nc(N2CCN(C)C(=O)C2)c2nc(N(CCOC)CCn3ccnc3)nc(N3CCC(OC)CC3)c2n1` [Compound 286, 4-(6-((2-(1H-imidazol-1-yl)ethyl)(2-methoxyethyl)amino)-2-(bis(2-methoxyethyl)amino)-8-(4-methoxypiperidin-1-yl)pyrimido[5,4-d]pyrimidin-4-yl)-1-methylpiperazin-2-one] registered a concentration for half-maximal inhibition (IC50) of 100 to 500 nM.
In the case of `COCCN(CCOC)c1nc(N2CCC(OC)CC2)c2nc(N(CCOC)CCOC)nc(N(C)Cc3ccncc3)c2n1` [Compound 82, N2,N2,N6,N6-tetrakis(2-methoxyethyl)-8-(4-methoxypiperidin-1-yl)-N4-methyl-N4-(pyridin-4-ylmethyl)pyrimido[5,4-d]pyrimidine-2,4,6-triamine] it was 100 to 500 nM.
In the case of `COCCN(CCOC)c1nc(N2CCN(c3ncn(C)n3)CC2)c2nc(N(CCOC)CCOC)nc(NCc3ccc(F)c(C#N)c3)c2n1` [Compound 225, 5-(((2,6-bis(bis(2-methoxyethyl)amino)-8-(4-(1-methyl-1H-1,2,4-triazol-3-yl)piperazin-1-yl)pyrimido[5,4-d]pyrimidin-4-yl)amino)methyl)-2-fluorobenzonitrile] it was less than 100 nM; in that of `COCCN(CCOC)c1nc(N2CCC(CO)C2)c2nc(N(CCOC)CCOC)nc(N3CCC(OC)CC3)c2n1` (stereo not drawn) [Compound 136, (1-(2,6-bis(bis(2-methoxyethyl)amino)-8-(4-methoxypiperidin-1-yl)pyrimido[5,4-d]pyrimidin-4-yl)pyrrolidin-3-yl)methanol], less than 100 nM; in that of `COCCN(CCOC)c1nc(N2CCC(OC)CC2)c2nc(N(CCOC)CCOC)nc(NCCC(C)(C)O)c2n1` [Compound 178, 4-((2,6-bis(bis(2-methoxyethyl)amino)-8-(4-methoxypiperidin-1-yl)pyrimido[5,4-d]pyrimidin-4-yl)amino)-2-methylbutan-2-ol], 500 to 1000 nM.
In the case of `COCCN(CCOC)c1nc(N2CCC(OC)CC2)c2nc(N(CCOC)CCOC)nc(OCc3cccc(-c4noc(C)n4)c3)c2n1` [Compound 159, N2,N2,N6,N6-tetrakis(2-methoxyethyl)-4-(4-methoxypiperidin-1-yl)-8-((3-(5-methyl-1,2,4-oxadiazol-3-yl)benzyl)oxy)pyrimido[5,4-d]pyrimidine-2,6-diamine] it was 100 to 500 nM.
The compound `COCCN(CCOC)c1nc(N2CCN(C)C(=O)C2)c2nc(N(CCOC)Cc3ccc(OC)c(OC)c3OC)nc(N3CCC(OC)CC3)c2n1` [Compound 303, 4-(2-(bis(2-methoxyethyl)amino)-6-((2-methoxyethyl)(2,3,4-trimethoxybenzyl)amino)-8-(4-methoxypiperidin-1-yl)pyrimido[5,4-d]pyrimidin-4-yl)-1-methylpiperazin-2-one] gave an IC50 of less than 100 nM.
As for `COCCN(CCOC)c1nc(N2CCN(C)C(=O)C2)c2nc(N(CCOC)CCOC)nc(NCC(C)C)c2n1` [Compound 215, 4-(2,6-bis(bis(2-methoxyethyl)amino)-8-(isobutylamino)pyrimido[5,4-d]pyrimidin-4-yl)-1-methylpiperazin-2-one], the figure is 100 to 500 nM; as for `COCCN(CCOC)c1nc(N2CCN(c3ncn(C)n3)CC2)c2nc(N(CCOC)CCOC)nc(N3CCC(OC)CC3)c2n1` [Compound 196, N2,N2,N6,N6-tetrakis(2-methoxyethyl)-4-(4-methoxypiperidin-1-yl)-8-(4-(1-methyl-1H-1,2,4-triazol-3-yl)piperazin-1-yl)pyrimido[5,4-d]pyrimidine-2,6-diamine], 100 to 500 nM; as for `COCCN(CCOC)c1nc(N2CCCN(C(C)=O)CC2)c2nc(N(CCOC)CCOC)nc(N3CCC(OC)CC3)c2n1` [Compound 98, 1-(4-(2,6-bis(bis(2-methoxyethyl)amino)-8-(4-methoxypiperidin-1-yl)pyrimido[5,4-d]pyrimidin-4-yl)-1,4-diazepan-1-yl)ethanone], 100 to 500 nM.
As for `COCCN(CCOC)c1nc(N(C)C2CCCC2)c2nc(N(CCOC)CCOC)nc(N3CCC(OC)CC3)c2n1` [Compound 166, N4-cyclopentyl-N2,N2,N6,N6-tetrakis(2-methoxyethyl)-8-(4-methoxypiperidin-1-yl)-N4-methylpyrimido[5,4-d]pyrimidine-2,4,6-triamine], the figure is 100 to 500 nM.
In the case of `COCCN(CCOC)c1nc(N2CCC(OC)CC2)c2nc(N(CCOC)CCOC)nc(NCc3cncs3)c2n1` [Compound 59, N2,N2,N6,N6-tetrakis(2-methoxyethyl)-8-(4-methoxypiperidin-1-yl)-N4-(thiazol-5-ylmethyl)pyrimido[5,4-d]pyrimidine-2,4,6-triamine] it was 100 to 500 nM; in that of `COCCN(CCOC)c1nc(N2CC[C@H](F)C2)c2nc(N(CCOC)CCOC)nc(N3CCC(OC)CC3)c2n1` [Compound 102, (S)-4-(3-fluoropyrrolidin-1-yl)-N2,N2,N6,N6-tetrakis(2-methoxyethyl)-8-(4-methoxypiperidin-1-yl)pyrimido[5,4-d]pyrimidine-2,6-diamine], less than 100 nM; in that of `COCCN(CCOC)c1nc(N2CCN(C)C(=O)C2)c2nc(N(CCOC)CCOC)nc(NCc3cccc(S(C)(=O)=O)c3)c2n1` [Compound 212, 4-(2,6-bis(bis(2-methoxyethyl)amino)-8-((3-(methylsulfonyl)benzyl)amino)pyrimido[5,4-d]pyrimidin-4-yl)-1-methylpiperazin-2-one], 500 to 1000 nM.
Regarding `COCCN(Cc1ccc(C(=O)O)c(C(F)(F)F)c1)c1nc(N2CCN(C)C(=O)C2)c2nc(N(CCOC)CCOC)nc(N3CCC(OC)CC3)c2n1` [Compound 339, 4-(((6-(bis(2-methoxyethyl)amino)-8-(4-methoxypiperidin-1-yl)-4-(4-methyl-3-oxopiperazin-1-yl)pyrimido[5,4-d]pyrimidin-2-yl)(2-methoxyethyl)amino)methyl)-2-(trifluoromethyl)benzoic acid], the IC50 is less than 100 nM.
In the case of `COCCN(CCOC)c1nc(N2CCN(C)C(=O)C2)c2nc(N(CCOC)CCOC)nc(NCc3cccc(OC(F)(F)F)c3)c2n1` [Compound 210, 4-(2,6-bis(bis(2-methoxyethyl)amino)-8-((3-(trifluoromethoxy)benzyl)amino)pyrimido[5,4-d]pyrimidin-4-yl)-1-methylpiperazin-2-one] it was less than 100 nM.
As for `COCCN(CCOC)c1nc(N2CCC(OC)CC2)c2nc(N(CCOC)CCOC)nc(NCC3CCOC3)c2n1` (stereo not drawn) [Compound 57, N2,N2,N6,N6-tetrakis(2-methoxyethyl)-8-(4-methoxypiperidin-1-yl)-N4-((tetrahydrofuran-3-yl)methyl)pyrimido[5,4-d]pyrimidine-2,4,6-triamine], the figure is 500 to 1000 nM.
In the case of `CCNc1nc(N(CCOC)CCOC)nc2c(N3CCC(OC)CC3)nc(N(CCOC)CCOC)nc12` [Compound 126, N4-ethyl-N2,N2,N6,N6-tetrakis(2-methoxyethyl)-8-(4-methoxypiperidin-1-yl)pyrimido[5,4-d]pyrimidine-2,4,6-triamine] it was 500 to 1000 nM; in that of `COCCN(Cc1ccc(C(=O)O)c(OC)c1)c1nc(N2CCN(C)C(=O)C2)c2nc(N(CCOC)CCOC)nc(N3CCC(OC)CC3)c2n1` [Compound 337, 4-(((6-(bis(2-methoxyethyl)amino)-8-(4-methoxypiperidin-1-yl)-4-(4-methyl-3-oxopiperazin-1-yl)pyrimido[5,4-d]pyrimidin-2-yl)(2-methoxyethyl)amino)methyl)-2-methoxybenzoic acid], 100 to 500 nM; in that of `COCCN(Cc1cc(F)c(C(=O)O)c(F)c1)c1nc(N2CCN(C)C(=O)C2)c2nc(N(CCOC)CCOC)nc(N3CCC(OC)CC3)c2n1` [Compound 340, 4-(((6-(bis(2-methoxyethyl)amino)-8-(4-methoxypiperidin-1-yl)-4-(4-methyl-3-oxopiperazin-1-yl)pyrimido[5,4-d]pyrimidin-2-yl)(2-methoxyethyl)amino)methyl)-2,6-difluorobenzoic acid], less than 100 nM.
